Key:
T-REx™ CHO cells = experiment: Yield of purified mutant GFP containing unnatural amino acid (pSWAN two-plasmid system); assay type: cell-based, Chinese hamster; details: pMpa 10 mM, pApa 10 mM, pBpa 1 mM, pAzpa 5 mM, pPpa 1 mM in media, anti-myc column purified
Source text: The pMpaRS gene was inserted directly after the non-regulated CMV promoter for efficient and continuous expression of pMpaRS. Another plasmid (pSWAN-GFP37TAG in FIG. 4B) containing both three tandem repeats of the BstRNACUA^Tyr gene and the GFP37TAG gene was also constructed. The gene encoding GFP37TAG was inserted after a Tet-regulated CMV promoter to minimize potential read-through of the nonsense amber codon caused by endogenous amber suppression in mammalian cells. These two plasmids were then assayed for their suppression efficiency. Because both plasmids contain three tandem repeats of the BstRNACUA^Tyr gene, varying the ratio of the two plasmids to increase the suppression level is not expected to change the total amount of the BstRNACUA^Tyr gene transfected into cells. Under optimized transfection conditions (0.5 μg of pSWAN-pMpaRS and 2.5 μg pSWAN-GFP37TAG per 2×10^6 cells), the suppression level is roughly two-fold higher than that using the three plasmids pUC18-3BstRNACUA^Tyr, pcDNA4-pMpaRS, and pcDNA4-GFP37TAG (the suppression level was determined by the number of fluorescent cells). Cells were grown for 1-2 days after induction and kept viable before harvesting. The yield of mutant GFP containing pMpa (GFP-pMpa) was also quantified. In the presence of 10 mM pMpa in the growth media, 1 μg of mutant GFP can be obtained from 2×10^7 adhesive T-REx™ CHO cells.
Transient transfection of T-REx™ CHO and 293 cells with the pSWAN-EcTyrRS variants and pSWAN-GFP37TAG (0.5 μg of pSWAN-EcTyrRS variant and 2.5 μg of pSWAN-GFP37TAG per 2×10^6 cells) all afforded roughly two-fold higher suppression levels than for the three plasmids pUC18-3BstRNACUA^Tyr, pcDNA4-EcTyrRS variant, and pcDNA4-GFP37TAG (with the exception of the pIpa specific variant). Mutant GFPs containing pApa, pBpa, pAzpa or pPpa were also expressed in T-REx™ CHO cells transfected with the pSWAN-EcTyrRS variants and pSWAN-GFP37TAG and grown in media containing the corresponding unnatural amino acid (pApa, 10 mM; pBpa, 1 mM; pAzpa, 5 mM; or pPpa, 1 mM) for 1-2 days, and purified using an anti-myc antibody column. The yields of the mutant proteins containing pApa and pAzpa were close to that for pMpa (˜1 μg per 2×10^7 cells), and the yields of mutant proteins containing pBpa and pPpa were somewhat lower (˜0.7 μg per 2×10^7 cells). Because the expression levels of EcTyrRS variants in T-REx™ CHO cells are similar, the lower yield of the mutant proteins containing pBpa and pPpa may be due to the low concentrations of unnatural amino acids in the media.
pSWAN-EcTyrRS variants and pSWAN-GFP37TAG were used to express mutant GFPs containing unnatural amino acids. T-REx™ CHO cells (Invitrogen™) were grown in 75 cm^2 tissue culture flasks (BD Biosciences) to 80-90% confluency and transfected with 2 μg of pSWAN-EcTyrRS and 10 μg pSWAN-GFP37TAG using […] FuGENE® 6. After overnight incubation, the media were changed to the fresh media containing the unnatural amino acid (pMpa, 10 mM; pApa, 10 mM; pBpa, 1 mM; pAzpa, 5 mM; and pPpa, 1 mM) and 1 μg/ml tetracycline. Cells were then grown for 1-2 days at 37° C. before harvesting, and then lysed with RIPA lysis buffer. The supernatant from the cell lysate was dialyzed against and equilibrated with PBS buffer before loading onto an anti-myc antibody agarose column (Sigma). The column was washed with 15 column volumes of PBS buffer and then eluted with 0.1 M ammonium hydroxide. The purified proteins were neutralized with 0.1 M acetic acid and analyzed by SDS-PAGE. […]

position 37 of GFP = experiment: Fidelity of unnatural amino acid incorporation by mass spectrometry (nano-RP LC/MS/MS, ESI TOF-MS); details: nano-RP LC/MS/MS of tryptic fragments, mutant GFP from T-REx CHO cells
Source text: To further characterize GFP-pMpa, the mutant protein was expressed in T-REx™ CHO cells transiently transfected with both pSWAN-pMpaRS and pSWAN-GFP37TAG. The protein was purified using an anti-myc antibody agarose column and then separated by SDS-PAGE. The GFP-pMpa band from the SDS-PAGE gel was digested with trypsin and analyzed by nanoscale reversed-phase liquid chromatography/mass spectrometry/mass spectrometry (nano-RP LC/MS/MS). In parallel, wild type GFP was purified from cells transfected with pcDNA4-GFP and subjected to the same analysis.
Proteolysis of affinity purified proteins (performed for wild-type and pBpa samples) was carried out by overnight incubation of proteins at 37° C. with sequencing-grade modified trypsin (Promega) using a substrate/enzyme ratio of 10:1 (wt/wt) based on the estimated protein concentration in 100 mM triethylammonium bicarbonate buffer (pH 8.5). In-gel digestions (performed for pMpa, pAzpa, pApa, and pPpa samples) were performed according to a modified EMBL procedure (see the website for EMBL, Heidelberg, Germany, Bioanalytical Research Group). Briefly, gel slices were excised to approximately 1 mm×1 mm cubes, washed for 5 minutes with water, 15 minutes with acetonitrile, and dried in a vacuum centrifuge before being rehydrated at 0° C. for 30 minutes with 12.5 ng/μl of sequencing-grade modified trypsin in 50 mM triethylammonium bicarbonate buffer (pH 8.5). Excess buffer was removed and 20 μl of 50 mM triethylammonium bicarbonate buffer (pH 8.5) was added to the gel slices before incubating at 37° C. overnight. Peptides were extracted from the gel slices as described in the protocol.
(§1) Nano-RP LC/MS/MS was performed with an HPLC pump, autosampler (Agilent Technologies, Palo Alto, Calif.), and an LTQ Orbitrap hybrid mass spectrometer (ThermoElectron, San Jose, Calif.). Tryptic digests were loaded with a pressure bomb onto a 75 μm i.d. precolumn packed with 4 cm of 5-μm Monitor C18 particles (Column Engineering, Ontario, Calif.) at a flow rate of approximately 2 μl/min. The precolumn was then connected to the HPLC pump and after several minutes of washing with solvent A the analytical column with integrated emitter tip (360 μm O.D.×75 μm i.d; 10 cm of 5 μM C18, ˜5-μm tip) was connected in series. The chromatographic profile was from 100% solvent A (0.1% aqueous acetic acid) to 50% solvent B (0.1% acetic acid in acetonitrile) in 40 min; the flow rate through the analytical column was ca. 100 nl/min.
For data-dependent experiments, the mass spectrometer was programmed to first record a high-resolution Orbitrap scan then a full-scan ion trap spectrum (m/z 500-2,000). This was followed by 10 data-dependent MS/MS scans (relative collision energy=35%; 3-Da isolation window) triggered of the ion-trap scan and finally two targeted MS/MS scans. The first targeted MS/MS scan was set to isolate and fragment the doubly charged precursor ion of the predicted unnatural amino acid modified peptide
at m/z 752.3. The raw data were searched against the MSDB database using MASCOT (Matrixscience, London, UK) for protein identification and to find the scans containing the target peptides with the unnatural amino acids as variable modification. To estimate fidelity at Y*37 of GFP-pMpa, single ion chromatograms (doubly charged precursor ions at m/z 752.3 for the wt and 759.3 for pMpa) and selected ion chromatograms (y9, y11, and y12) were integrated using the Xcalibur software package (ThermoElectron, San Jose, Calif.).
Intact protein mass spectra were acquired on an automated LC/MS system (Waters, Milford, Mass.) consisting of a capillary LC with auto-sampler and a QTOF2 mass spectrometer. GFP-pMpa (0.1 mg/ml) was loaded onto a reversed-phase protein Captrap (Michrom Bioresources, Auburn, Calif.) for desalting with 0.1% acetic acid in water and eluted with 80% acetonitrile/0.1% acetic acid at 5 μl/min into the ESI source of the mass spectrometer. […]

[1] = Decay of azido amino acid seen in tandem MS of mutant GFP; assay type: physicochemical; details: mutant GFP containing pAzpa; azido group chemically reactive and photo-unstable
Method: The mutant GFP containing pAzpa was only weakly detectable. […] The data from all five mutant proteins indicate the high selectivity and fidelity of the incorporation of unnatural amino acids.
as §1

mammalian cells = experiment: Cellular toxicity of heterologous synthetase expression; assay type: cell-based; details: under the growth conditions used

Molecule | yield of mutant GFP containing the unnatural amino acid (T-REx™ CHO cells) | wild type peptide signals in tandem MS of mutant GFP sample (position 37 of GFP) | decay of the amino acid in mutant GFP (tandem MS) [1] | cellular toxicity of heterologous expression (mammalian cells)
[N-]=[N+]=Nc1ccc(C[C@H](N)C(=O)O)cc1 [pAzpa, p-azidophenylalanine] | ~1 μg per 2×10^7 cells | No wild type signals could be detected | Most of pAzpa decays to pAmpa | –
pMpaRS: EcTyrRS variant Y37V/D182S/F183M that charges BstRNACUA^Tyr with pMpa (protein, UniProt P0AGJ9 2-424, looked up, variant Y37V D182S F183M) Tyrosine--tRNA ligase: ASSNLIKQLQERGLVAQVTDEEALAERLAQGPIALVCGFDPTADSLHLGHLVPLLCLKRFQQAGHKPVALVGGATGLIGDPSFKAAERKLNTEETVQEWVDKIRKQVAPFLDFDCGENSAIAANNYDWFGNMNVLTFLRDIGKHFSVNQMINKEAVKQRLNREDQGISFTEFSYNLLQGYSMACLNKQYGVVLQIGGSDQWGNITSGIDLTRRLHQNQVFGLTVPLITKADGTKFGKTEGGAVWLDPKKTSPYKFYQFWINTADADVYRFLKFFTFMSIEEINALEEEDKNSGKAPRAQYVLAEQVTRLVHGEEGLQAAKRITECLFSGSLSALSEADFEQLAQDGVPMVEMEKGADLMQALVDSELQPSRGQARKTIASNAITINGEKQSDPEYFFKEEDRLFGRFTLLRRGKKNYCLICWK | – | – | – | did not show any apparent cellular toxicity

From patent US20080166766A1, “Genetic incorporation of unnatural amino acids into proteins in mammalian cells” (The Scripps Research Institute, priority 2006, published 2008)
